Test results as given in ChEMBL document CHEMBL3758147, “1,9-seco-Bicyclic Polyprenylated Acylphloroglucinols from Hypericum uralum” (J Nat Prod, 2015).

Molecular target: Acetylcholinesterase (Homo sapiens, UniProt P22303)
Test: Inhibition of human erythrocyte AChE using acetylthiocholine as substrate assessed as substrate hydrolysis preincubated for 20 mins followed by substrate addition measured after 30 mins by Ellman's assay; call rule not given here

Sequence of Acetylcholinesterase (P22303 whole entry): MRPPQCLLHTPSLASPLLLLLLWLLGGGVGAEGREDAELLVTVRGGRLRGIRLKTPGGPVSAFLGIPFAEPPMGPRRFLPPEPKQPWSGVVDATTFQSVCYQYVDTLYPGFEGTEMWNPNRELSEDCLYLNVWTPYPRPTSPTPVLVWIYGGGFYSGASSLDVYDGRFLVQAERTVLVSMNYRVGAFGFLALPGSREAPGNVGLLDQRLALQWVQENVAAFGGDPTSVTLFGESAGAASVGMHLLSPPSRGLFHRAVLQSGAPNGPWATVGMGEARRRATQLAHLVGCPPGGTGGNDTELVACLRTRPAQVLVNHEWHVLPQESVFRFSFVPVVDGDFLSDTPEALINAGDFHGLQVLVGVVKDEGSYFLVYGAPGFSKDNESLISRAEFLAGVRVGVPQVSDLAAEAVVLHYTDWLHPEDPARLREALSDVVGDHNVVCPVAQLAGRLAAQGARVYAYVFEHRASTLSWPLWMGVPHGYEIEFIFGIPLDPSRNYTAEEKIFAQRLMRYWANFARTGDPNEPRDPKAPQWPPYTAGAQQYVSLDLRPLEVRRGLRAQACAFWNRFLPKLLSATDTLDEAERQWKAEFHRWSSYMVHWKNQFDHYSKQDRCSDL

SMILES	IC50	IC50 (read-out: IC50)
CC(C)=CCC[C@]1(C)[C@@H](CC=C(C)C)C[C@H](CC=C(C)C)C(=O)[C@](O)(CC=C(C)C)C(=O)[C@H]1C(=O)C(C)C	Not Active	
CC(C)=CC[C@H]1C[C@@]2(CC=C(C)C)C(=O)C3(CC=C(C)C)CC14C[C@@H](C=C(C)C)C(C(=O)c1ccccc1)(C3=O)C42O	Not Active	
CC(C)=CC[C@H]1C[C@@]2(CC=C(C)C)C(=O)O[C@](CC=C(C)C)(C2=O)C(=O)[C@]23C(=O)c4ccccc4C(C)(C)[C@H]2CC[C@]13C	Not Active	
CC(C)=CCC/C(C)=C/C[C@]12C[C@@H](CC=C(C)C)C(C)(C)[C@H](C(=O)C(C)C)C(=O)[C@](CC=C(C)C)(OC1=O)C2=O	Not Active	
CC(C)=CCC1=C2OC(C)(C)[C@H](O)[C@H]3/C=C(/C)[C@@H](CC=C(C)C)C[C@](CC=C(C)C)(C1=O)C(=O)[C@]23C(=O)c1ccccc1	Not Active	
CCC(C)C(=O)[C@@H]1C(=O)[C@]2(CC=C(C)C)OC(=O)[C@](C/C=C(\C)CCC=C(C)C)(C[C@@H](CC=C(C)C)C1(C)C)C2=O (some centres not stated)	Not Active	
CC(C)=CCC[C@]1(C)[C@@H](CC=C(C)C)C[C@@]2(CC=C(C)C)C(=O)O[C@@](CC=C(C)C)(C(=O)[C@H]1C(=O)C(C)C)C2=O	Not Active	
CC(C)=CC[C@H]1C[C@@]2(CC=C(C)C)C(=O)O[C@@](CC=C(C)C)(C(=O)[C@@H](C(=O)C(C)C)[C@]1(C)C/C=C/C(C)(C)O)C2=O		9.6 µM
CCC(C)C(=O)[C@@H]1C(=O)[C@]2(CC=C(C)C)OC(=O)[C@](CC=C(C)C)(C[C@H](CC=C(C)C)[C@@]1(C)C/C=C/C(C)(C)O)C2=O (some centres not stated)		7.1 µM
CC(C)=CC[C@H]1C[C@@]2(CC=C(C)C)C(=O)O[C@@](CC=C(C)C)(C(=O)[C@@H](C(=O)C(C)C)[C@]1(C)C/C=C/C(C)(C)OO)C2=O	Not Active	
CCC(C)C(=O)[C@@H]1C(=O)[C@]2(CC=C(C)C)OC(=O)[C@](CC=C(C)C)(C[C@H](CC=C(C)C)[C@@]1(C)C/C=C/C(C)(C)OO)C2=O (some centres not stated)	Not Active	
CC(C)=CC[C@H]1C[C@@]23C[C@H]4C(C)(C)c5ccccc5C(=O)[C@]45C(=O)C(CC=C(C)C)(C[C@@]1(C/C=C/C(C)(C)O)C25O)C3=O	Not Active	
